Where a name gives a salt, the structure may show the parent alone.
Experiments:
[1] = target: T1, human Cdc7/human ASK complex protein (Homo sapiens, UniProt O00311); experiment: Cdc7/ASK enzymatic assay; assay type: biochemical; conditions: 5 μM ATP; for IC50: mean of duplicated assays, read-out: Cdc7 IC50; for Cdc7 inhibitory potency (in words): compared with compound 3
T1 construct: purchased Carna Biosciences, Inc
Experimental: Measurement of Cdc7 kinase activity was carried out using MSA assay kit (QuickScout™ Screening Assist Kit, Carna Biosciences, Inc.). Assay buffer (20 mM HEPES, 0.01% Triton X-100™, 2 mM dithiothreitol, pH 7.5) was used to prepare a substrate mixture solution comprising 4 μM of kinase-reaction substrate (FITC-labeled MCM2 peptide), 40 mM MgCl2, and 4 times concentrations of final targeted ATP (5, 100, and 1,000 μM). The enzyme supplied in the kit (human Cdc7/human ASK complex protein) was diluted into the assay buffer to prepare a 7 nM solution (enzyme solution). The compound stock solution was prepared by diluting a 10 mM DMSO solution into the assay buffer (final 4% DMSO). The kinase reaction was performed by mixing of 5 μL of the compound solution, 5 μL of the substrate mixture solution, and 10 μL of the enzyme solution in a 384-well plate. For the pre-incubation assay, the compound solution and the enzyme solution were pre-mixed and incubated at ambient temperature for 30 min before adding into the substrate mixture solution to start enzymatic reaction. After the reaction at 25° C. for 5 hours, 60 μL of the termination buffer (supplied in the kit) was added to stop the reaction. The phosphorylation of substrate was measured using a LabChip EZ Reader II system (Caliper Life Sciences). The percent inhibition (%) by a tested compound was calculated according to the following formula:
Percent inhibition (%)=(1−(C−A)/(B−A))×100
A represents P/(P+S) for a blank well, B represents P/(P+S) for a solvent well, and C represents P/(P+S) for a compound-added well. S: the peak heights of the separated substrate, P: phosphorylated substrate.
The IC50 value of tested compound was calculated by regression analysis of the percent inhibition values versus the (logarithmic) concentration of the tested compound.

[2] = In vitro metabolic stability, mouse liver microsomes; assay type: in vitro ADME; conditions: 30 min treatment of mouse liver microsomes
Experimental: (§1) NADPH regeneration system (13 mM NADP, 33 mM Glucose-6-phospate, 33 mM MgCl2, and 4 U/mL of Glucose-6-phosphate dehydrogenase) and liver microsomes (1 mg/mL of HLM (BD Gentest, lot 18888) or MLM (BD Gentest, lot 31197)) in 0.1 M phosphate buffer (pH 7.4) were pre-incubated separately at 37° C. for 20 min before mixing with 1:4 ratio. 50 μL of the mixed solution was added to 50 μL of the test compound (2 μM) to initiate the reaction at 37° C. (final conc. 1 μM test compound, 0.4 mg/mL liver microsomes, and 1.3 mM NADPH). After 30 min, the reactions were stopped by adding 300 μL of cold acetonitrile. For 0 min samples, ice-cold acetonitrile (with system suitability standard) was treated before mixing the test compound and microsomes. The sample were vortexed well and then centrifuged at 3500 rpm at 15° C. for 20 min. 110 μL of supernatant was mixed with 110 μL of water and quantitated by LC-MS/MS workstation (Shimazu Corp.).

[3] = In vitro metabolic stability, human liver microsomes; assay type: in vitro ADME; conditions: 30 min treatment of human liver microsomes
Experimental: as §1

T1 sequence (O00311 whole entry): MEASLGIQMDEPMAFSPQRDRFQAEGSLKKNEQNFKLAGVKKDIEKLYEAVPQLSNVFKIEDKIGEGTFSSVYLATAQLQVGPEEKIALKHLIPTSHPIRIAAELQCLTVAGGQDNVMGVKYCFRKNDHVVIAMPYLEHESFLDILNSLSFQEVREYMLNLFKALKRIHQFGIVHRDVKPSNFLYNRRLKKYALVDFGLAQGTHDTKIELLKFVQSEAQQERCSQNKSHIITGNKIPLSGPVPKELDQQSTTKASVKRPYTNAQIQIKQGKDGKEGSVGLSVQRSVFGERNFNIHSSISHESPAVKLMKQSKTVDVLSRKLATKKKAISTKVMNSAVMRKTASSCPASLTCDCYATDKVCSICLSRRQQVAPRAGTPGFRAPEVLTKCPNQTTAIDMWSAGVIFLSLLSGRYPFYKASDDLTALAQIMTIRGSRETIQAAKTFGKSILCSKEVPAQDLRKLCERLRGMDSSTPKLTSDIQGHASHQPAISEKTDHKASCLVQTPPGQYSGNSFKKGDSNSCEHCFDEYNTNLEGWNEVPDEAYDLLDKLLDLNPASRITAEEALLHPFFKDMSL
T1 sequence (Q9UBU7 whole entry partner): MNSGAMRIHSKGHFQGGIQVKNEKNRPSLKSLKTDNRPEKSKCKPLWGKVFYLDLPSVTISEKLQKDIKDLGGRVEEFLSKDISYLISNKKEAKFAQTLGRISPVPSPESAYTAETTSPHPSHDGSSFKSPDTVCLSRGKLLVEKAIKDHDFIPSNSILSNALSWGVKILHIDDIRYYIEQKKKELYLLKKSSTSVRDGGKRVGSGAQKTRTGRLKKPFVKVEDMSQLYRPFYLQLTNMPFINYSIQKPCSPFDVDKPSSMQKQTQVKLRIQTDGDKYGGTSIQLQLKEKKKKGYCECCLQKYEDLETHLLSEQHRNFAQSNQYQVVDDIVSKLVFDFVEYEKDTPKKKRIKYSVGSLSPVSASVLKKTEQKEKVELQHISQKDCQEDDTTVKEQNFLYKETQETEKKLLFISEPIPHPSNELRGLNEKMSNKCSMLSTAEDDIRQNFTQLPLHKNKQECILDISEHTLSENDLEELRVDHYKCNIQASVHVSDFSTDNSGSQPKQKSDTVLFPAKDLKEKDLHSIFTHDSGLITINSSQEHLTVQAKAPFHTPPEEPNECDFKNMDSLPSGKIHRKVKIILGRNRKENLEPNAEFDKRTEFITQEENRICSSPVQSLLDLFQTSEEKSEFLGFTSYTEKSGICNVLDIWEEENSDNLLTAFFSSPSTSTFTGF

Row | SMILES | IC50 [1] [nM] | Cdc7 inhibitory potency (in words) [1] | MLM % (remaining % of parent compound) [2] [%] | HLM % (remaining % of parent compound) [3] [%]
1 | CCOC(=O)C1=C(Nc2cncnc2)O/C(=C\c2c[nH]c3ncccc23)C1=O [Compound 28, Ethyl 5-((1H-pyrrolo[2,3-b]pyridin-3-yl)methylene)-4-oxo-2-(pyrimidin-5-ylamino)-4,5-dihydrofuran-3-carboxylate] | 18 |  |  | 
2 | CCOC(=O)C1=C(Nc2ccc(F)cc2F)OC(=Cc2c[nH]c3ncccc23)C1=O [Compound 23, Ethyl 5-((1H-pyrrolo[2,3-b]pyridin-3-yl)methylene)-2-((2,4-difluorophenyl)amino)-4-oxo-4,5-dihydrofuran-3-carboxylate] | 2.5 |  | 12 | 57
3 | CCOC(=O)C1=C(Nc2ccc3cn[nH]c3c2)OC(=Cc2c[nH]c3ncccc23)C1=O [Compound 31, Ethyl 2-((1H-indazol-6-yl)amino)-5-((1H-pyrrolo[2,3-b]pyridin-3-yl)methylene)-4-oxo-4,5-dihydrofuran-3-carboxylate] | 4 |  |  | 
4 | CCOC(=O)C1=C(Nc2ccc3ncccc3c2)O/C(=C\c2c[nH]c3ncccc23)C1=O [Compound 30, Ethyl 5-((1H-pyrrolo[2,3-b]pyridin-3-yl)methylene)-4-oxo-2-(quinolin-6-ylamino)-4,5-dihydrofuran-3-carboxylate] | 36 |  |  | 
5 | O=C(O)C1=C(Nc2ccccc2)O/C(=C\c2c[nH]c3ncccc23)C1=O [Compound 9, 5-((1H-Pyrrolo[2,3-b]pyridin-3-yl)methylene)-4-oxo-2-(phenylamino)-4,5-dihydrofuran-3-carboxylic acid] | 9.9 |  |  | 
6 | CCOC(=O)C1=C(Nc2ccccc2C)OC(=Cc2c[nH]c3ncccc23)C1=O [Compound 21, Ethyl 5-((1H-pyrrolo[2,3-b]pyridin-3-yl)methylene)-4-oxo-2-(o-tolylamino)-4,5-dihydrofuran-3-carboxylate] | 3.8 |  | 24 | 53
7 | CCOC(=O)C1=C(Nc2cc[nH]n2)O/C(=C\c2c[nH]c3ncccc23)C1=O [Compound 29, Ethyl 2-((1H-pyrazol-3-yl)amino)-5-((1H-pyrrolo[2,3-b]pyridin-3-yl)methylene)-4-oxo-4,5-dihydrofuran-3-carboxylate] | 10 |  |  | 
8 | CCOC(=O)C1=C(Nc2ccccc2)SC(=Cc2c[nH]c3ncccc23)C1=O [Compound 4, Ethyl 5-((1H-pyrrolo[2,3-b]pyridin-3-yl)methylene)-4-oxo-2-(phenylamino)-4,5-dihydrothiophene-3-carboxylate] | > 10000 | retention of some potency |  | 
9 | CCOC(=O)C1=C(Nc2ccccc2OC)OC(=Cc2c[nH]c3ncccc23)C1=O [Compound 16, Ethyl 5-((1H-pyrrolo[2,3-b]pyridin-3-yl)methylene)-2-((2-methoxyphenyl)amino)-4-oxo-4,5-dihydrofuran-3-carboxylate] | 12 |  |  | 
10 | CCOC(=O)C1=C(Nc2ccccc2)OC(=Cc2ccc(O)c(C)c2)C1=O [Compound 6, Ethyl 5-(4-hydroxy-3-methylbenzylidene)-4-oxo-2-(phenylamino)-4,5-dihydrofuran-3-carboxylate] | 1200 |  |  | 

More lines, now with the values ahead:

Row | IC50 [1] [nM] | Cdc7 inhibitory potency (in words) [1] | MLM % (remaining % of parent compound) [2] [%] | HLM % (remaining % of parent compound) [3] [%] | SMILES
11 | 3200 |  |  |  | CCOC(=O)C1=C(Nc2ccccc2)OC(=Cc2ccc3c(c2)OCO3)C1=O [Compound 7, Ethyl 5-(benzo[d][1,3]dioxol-5-ylmethylene)-4-oxo-2-(phenylamino)-4,5-dihydrofuran-3-carboxylate]
12 |  | significant decrease in potency |  |  | CCNC(=O)C1=C(Nc2ccccc2)O/C(=C\c2c[nH]c3ncccc23)C1=O [Compound 11, 5-((1H-Pyrrolo[2,3-b]pyridin-3-yl)methylene)-N-ethyl-4-oxo-2-(phenylamino)-4,5-dihydrofuran-3-carboxamide]
13 | 23 | some decrease in potency |  |  | CCOC(=O)C1=C(NCc2ccccc2)O/C(=C\c2c[nH]c3ncccc23)C1=O [Compound 32, Ethyl 5-((1H-pyrrolo[2,3-b]pyridin-3-yl)methylene)-2-(benzylamino)-4-oxo-4,5-dihydrofuran-3-carboxylate hydrochloride]
14 | 30 | some decrease in potency |  |  | CCOC(=O)C1=C(NCCc2ccccc2)O/C(=C\c2c[nH]c3ncccc23)C1=O [Compound 33, Ethyl 5-((1H-pyrrolo[2,3-b]pyridin-3-yl)methylene)-4-oxo-2-(phenethylamino)-4,5-dihydrofuran-3-carboxylate hydrochloride]
15 | 5.9 |  |  |  | CCOC(=O)C1=C(Nc2ccc(C)cc2)OC(=Cc2c[nH]c3ncccc23)C1=O [Compound 22, Ethyl 5-((1H-pyrrolo[2,3-b]pyridin-3-yl)methylene)-4-oxo-2-(p-tolylamino)-4,5-dihydrofuran-3-carboxylate]
16 | 44 |  |  |  | CCOC(=O)C1=C(Nc2ccccc2)OC(=Cc2c[nH]c3ncc(Cl)cc23)C1=O [Compound 5, Ethyl 5-((5-chloro-1H-pyrrolo[2,3-b]pyridin-3-yl)methylene)-4-oxo-2-(phenylamino)-4,5-dihydrofuran-3-carboxylate]
17 | 4.9 |  | 5.1 | 33 | CCOC(=O)C1=C(Nc2ccc(OC)cc2)OC(=Cc2c[nH]c3ncccc23)C1=O [Compound 18, Ethyl 5-((1H-pyrrolo[2,3-b]pyridin-3-yl)methylene)-2-((4-methoxyphenyl)amino)-4-oxo-4,5-dihydrofuran-3-carboxylate]
18 | 30 |  |  |  | CCOC(=O)C1=C(Nc2ccccn2)OC(=Cc2c[nH]c3ncccc23)C1=O [Compound 25, Ethyl 5-((1H-pyrrolo[2,3-b]pyridin-3-yl)methylene)-4-oxo-2-(pyridin-2-ylamino)-4,5-dihydrofuran-3-carboxylate]
19 | 4.3 |  | 25 | 52 | CCOC(=O)C1=C(Nc2ccc(F)cc2)OC(=Cc2c[nH]c3ncccc23)C1=O [Compound 20, Ethyl 5-((1H-pyrrolo[2,3-b]pyridin-3-yl)methylene)-2-((4-fluorophenyl)amino)-4-oxo-4,5-dihydrofuran-3-carboxylate]
20 | 3.5 |  |  |  | CCOC(=O)C1=C(Nc2ccncc2)OC(=Cc2c[nH]c3ncccc23)C1=O [Compound 27, Ethyl 5-((1H-pyrrolo[2,3-b]pyridin-3-yl)methylene)-4-oxo-2-(pyridin-4-ylamino)-4,5-dihydrofuran-3-carboxylate]
21 | 6.7 |  |  |  | CCOC(=O)C1=C(Nc2ccc(Cl)cc2)OC(=Cc2c[nH]c3ncccc23)C1=O [Compound 15, Ethyl 5-((1H-pyrrolo[2,3-b]pyridin-3-yl)methylene)-2-((4-chlorophenyl)amino)-4-oxo-4,5-dihydrofuran-3-carboxylate]
22 | 29 |  |  |  | CCOC(=O)C1=C(Nc2cccc(OC)c2)OC(=Cc2c[nH]c3ncccc23)C1=O [Compound 17, Ethyl 5-((1H-pyrrolo[2,3-b]pyridin-3-yl)methylene)-2-((3-methoxyphenyl)amino)-4-oxo-4,5-dihydrofuran-3-carboxylate]
23 | > 10000 | significant decrease in potency |  |  | NC(=O)C1=C(Nc2ccccc2)O/C(=C\c2c[nH]c3ncccc23)C1=O [Compound 10, 5-((1H-Pyrrolo[2,3-b]pyridin-3-yl)methylene)-4-oxo-2-(phenylamino)-4,5-dihydrofuran-3-carboxamide]
24 | 8 |  |  |  | CCOC(=O)C1=C(Nc2cccnc2)OC(=Cc2c[nH]c3ncccc23)C1=O [Compound 26, Ethyl 5-((1H-pyrrolo[2,3-b]pyridin-3-yl)methylene)-4-oxo-2-(pyridin-3-ylamino)-4,5-dihydrofuran-3-carboxylate]
25 | 12 |  |  |  | CCOC(=O)C1=C(Nc2cccc(Cl)c2)OC(=Cc2c[nH]c3ncccc23)C1=O [Compound 14, Ethyl 5-((1H-pyrrolo[2,3-b]pyridin-3-yl)methylene)-2-((3-chlorophenyl)amino)-4-oxo-4,5-dihydrofuran-3-carboxylate]

From US20200055848A1, “FURANONE DERIVATES AND METHODS OF USE THEREOF” (CARNA BIOSCIENCES, INC., priority 2016, published 2020)
